Assay results reported in patent US9365583B2, “Substituted pyrazoles and uses thereof” (Genentech, Inc., priority 2013, dated 2016).

Molecular target: T1, N-terminally GST-tagged DLK (catalytic domain amino acid 1-520) (Homo sapiens, UniProt Q12852)
T1 construct: N-terminally GST-tagged DLK (catalytic domain amino acid 1-520); purchased Carna Bioscience
T1 sequence (Q12852 1-520): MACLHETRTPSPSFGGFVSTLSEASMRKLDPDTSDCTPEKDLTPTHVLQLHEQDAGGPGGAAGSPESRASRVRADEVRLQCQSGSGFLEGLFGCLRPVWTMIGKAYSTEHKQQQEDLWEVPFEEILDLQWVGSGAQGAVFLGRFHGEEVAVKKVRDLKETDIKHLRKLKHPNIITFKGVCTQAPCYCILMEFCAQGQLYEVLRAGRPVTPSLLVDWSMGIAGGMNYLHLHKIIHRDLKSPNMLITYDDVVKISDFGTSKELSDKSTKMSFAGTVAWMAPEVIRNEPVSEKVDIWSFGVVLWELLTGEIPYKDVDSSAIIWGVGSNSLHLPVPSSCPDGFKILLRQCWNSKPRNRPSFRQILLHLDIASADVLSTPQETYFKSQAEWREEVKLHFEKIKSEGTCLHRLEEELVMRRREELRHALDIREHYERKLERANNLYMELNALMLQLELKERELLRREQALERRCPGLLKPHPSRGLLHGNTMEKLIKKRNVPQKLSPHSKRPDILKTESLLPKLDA
Experiment: DLK TR-FRET inhibition assay
Format: biochemical
Conditions: 5 nM GST-DLK, 40 nM HIS-MKK4 K131M substrate, 30 μM ATP, 60 minutes at ambient temperature
Summary of the method: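 Phosphorylated MKK4 was quantified by TR-FRET (Eu-labelled anti-phospho-MKK4, D2 anti-HIS; 3 h, 665 and 615 nm emission) after EDTA quench. Reactions held 5 nM GST-tagged DLK catalytic domain (1-520), 40 nM HIS-MKK4 K131M substrate, 30 μM ATP and compound (3-fold series from 20 uM), 60 min, room temperature, pH 7.5.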

SMILES | Ki
CC(C)n1nc(-c2cnc(N)c(OC(F)F)c2)cc1[C@H]1[C@@H]2C[C@@H](N3CCOCC3)C[C@@H]21 [compound 137, 3-(difluoromethoxy)-5-(1-isopropyl-5-((1R,3s,5S,6r)-3-morpholino-bicyclo[3.1.0]hexan-6-yl)-1 H-pyrazol-3-yl)pyridin-2-amine] | 3.34 nM
CC(C)n1nc(-c2cnc(N)c(OC(F)(F)F)c2)cc1[C@H]1[C@@H]2C[C@@]3(CCN3C3COC3)C[C@@H]21 [compound 140, 5-(1-isopropyl-5-((1′R,2r,5′S,6′r)-1-(oxetan-3-yl)spiro[azetidine-2,3′-bicyclo[3.1.0]hexan]-6′-yl)-1H-pyrazol-3-yl)-3-(trifluoro-methoxy)pyridin-2-amine] | 6.59 nM
COCCN1CC2(C[C@@H]3[C@H](C2)[C@H]3c2cc(-c3cnc(N)c(C(F)(F)F)c3)nn2C(C)C)C1 [compound 141, 5-(1-isopropyl-5-((1′R,5′S,6′r)-1-(2-methoxyethyl)spiro[azetidine-3,3′-bicyclo[3.1.0]hexan]-6′-yl)-1H-pyrazol-3-yl)-3-(trifluoromethyl)pyridin-2-amine] | 8.52 nM
COC1CN([C@H]2C[C@@H]3[C@H](C2)[C@H]3c2cc(-c3cnc(N)c(C(F)(F)F)c3)nn2CC(F)F)C1 [compound 144, 5-(1-(2,2-difluoroethyl)-5-((1R,3r,5S,6r)-3-(3-methoxyazetidin-1-yl)bicyclo[3.1.0]hexan-6-yl)-1H-pyrazol-3-yl)-3-(trifluoro-methyl)pyridin-2-amine] | 2.8 nM
CO[C@H]1CCN([C@H]2C[C@@H]3[C@H](C2)[C@H]3c2cc(-c3cnc(N)c(C(F)(F)F)c3)nn2CC(F)F)C1 [compound 145, 5-(1-(2,2-difluoroethyl)-5-((1R,3r,5S,6S)-3-((S)-3-methoxypyrrolidin-1-yl)bicyclo[3.1.0]hexan-6-yl)-1H-pyrazol-3-yl)-3-(trifluoro-methyl)pyridin-2-amine] | 3.3 nM
COCCN1CC[C@@]12C[C@@H]1[C@H](C2)[C@H]1c1cc(-c2cnc(N)c(OC(F)(F)F)c2)nn1C(C)C [compound 146, 5-(1-isopropyl-5-((1′R,2r,5′S,6′r)-1-(2-methoxyethyl)spiro[azetidine-2,3′-bicyclo[3.1.0]hexan]-6-yl)-1H-pyrazol-3-yl)-3-(trifluoro-methoxy)pyridin-2-amine] | 4.3 nM
CC(C)n1nc(-c2cnc(N)c(OC(F)(F)F)c2)cc1[C@H]1[C@@H]2C[C@@]3(CCN3CC(F)F)C[C@@H]21 [compound 147, 5-(5-((1′R,2r,5′S,6′r)-1-(2,2-difluoro-ethyl)spiro[azetidine-2,3′-bicyclo[3.1.0]hexan]-6′-yl)-1-isopropyl-1H-pyrazol-3-yl)-3-(trifluoro-methoxy)pyridin-2-amine] | 5.7 nM
CC(C)n1nc(-c2cnc(N)c(C(F)(F)F)c2)cc1[C@H]1[C@@H]2C[C@@]3(CCN3CC(F)F)C[C@@H]21 [compound 148, 5-(5-((1′R,2r,5′S,6′r)-1-(2,2-difluoro-ethyl)spiro[azetidine-2,3′-bicyclo[3.1.0]hexan]-6-yl)-1-isopropyl-1H-pyrazol-3-yl)-3-(trifluoro-methyl)pyridin-2-amine] | 8.9 nM
COC1CN([C@@H]2C[C@@H]3[C@H](C2)[C@H]3c2cc(-c3cnc(N)c(C(F)(F)F)c3)nn2CC(F)F)C1 [compound 149, 5-(1-(2,2-difluoroethyl)-5-((1R,3s,5S,6r)-3-(3-methoxyazetidin-1-yl)bicyclo[3.1.0]hexan-6-yl)-1H-pyrazol-3-yl)-3-(trifluoromethyl) pyridin-2-amine] | 4.1 nM
CO[C@H]1CCN([C@@H]2C[C@@H]3[C@H](C2)[C@H]3c2cc(-c3cnc(N)c(C(F)(F)F)c3)nn2CC(F)F)C1 [compound 150, 5-(1-(2,2-difluoroethyl)-5-((1R,3s,5S,6S)-3-((S)-3-methoxy-pyrrolidin-1-yl)bicyclo[3.1.0]hexan-6-yl)-1H-pyrazol-3-yl)-3-(trifluoro-methyl)pyridin-2-amine] | 3.6 nM
CC(C)n1nc(-c2cnc(N)c(C(F)(F)F)c2)cc1[C@H]1[C@@H]2C[C@@]3(CCN3C3COC3)C[C@@H]21 [compound 151, 5-(1-isopropyl-5-((1′R,2r,5′S,6′r)-1-(oxetan-3-yl)spiro[azetidine-2,3′-bicyclo[3.1.0]hexan]-6′-yl)-1H-pyrazol-3-yl)-3-(trifluoromethyl) pyridin-2-amine] | 9 nM
CC(C)n1nc(-c2cnc(N)c(OC(F)F)c2)cc1[C@H]1[C@@H]2C[C@H](N3C4COCC3C4)C[C@@H]21 [compound 153, 5-(5-((1R,3r,5S,6r)-3-(3-oxa-6-azabicyclo[3.1.1]heptan-6-yl)bicyclo[3.1.0]hexan-6-yl)-1-isopropyl-1H-pyrazol-3-yl)-3-(difluoro-methoxy)pyridin-2-amine] | 0.9 nM
COC1CN([C@H]2C[C@@H]3[C@H](C2)[C@H]3c2cc(-c3cnc(N)c(OC(F)F)c3)nn2CC2CC2)C1 [compound 154, 5-(1-(cyclopropylmethyl)-5-((1R,3r,5S,6r)-3-(3-methoxyazetidin-1-yl)bicyclo[3.1.0]hexan-6-yl)-1H-pyrazol-3-yl)-3-(difluoromethoxy)pyridin-2-amine] | 0.7 nM
COC1CN([C@@H]2C[C@@H]3[C@H](C2)[C@H]3c2cc(-c3cnc(N)c(OC(F)F)c3)nn2CC2CC2)C1 [compound 155, 5-(1-(cyclopropylmethyl)-5-((1R,3s,5S,6r)-3-(3-methoxyazetidin-1-yl)bicyclo[3.1.0]hexan-6-yl)-1H-pyrazol-3-yl)-3-(difluoromethoxy)pyridin-2-amine] | 3.3 nM
CC(C)n1nc(-c2cnc(N)c(OC(F)F)c2)cc1[C@H]1[C@@H]2C[C@@H](N3C4COCC3C4)C[C@@H]21 [compound 157, 5-(5-((1R,3s,5S,6r)-3-(3-oxa-6-azabicyclo[3.1.1]heptan-6-yl)bicyclo[3.1.0]hexan-6-yl)-1-isopropyl-1H-pyrazol-3-yl)-3-(difluoro-methoxy)pyridin-2-amine] | 3.1 nM
CO[C@H]1CCN([C@H]2C[C@@H]3[C@H](C2)[C@H]3c2cc(-c3cnc(N)c(OC(F)F)c3)nn2CC2CC2)C1 [compound 158, 5-(1-(cyclopropylmcthyl)-5-((1R,3r,5S,6S)-3-((S)-3-methoxy-pyrrolidin-1-yl)bicyclo[3.1.0]hexan-6-yl)-1H-pyrazol-3-yl)-3-(difluoromethoxy)pyridin-2-amine] | 1.2 nM
CO[C@H]1CCN([C@@H]2C[C@@H]3[C@H](C2)[C@H]3c2cc(-c3cnc(N)c(OC(F)F)c3)nn2CC2CC2)C1 [compound 159, 5-(1-(cyclopropylmethyl)-5-((1R,3s,5S,6S)-3-((S)-3-methoxy-pyrrolidin-l-yl)bicyclo[3.1.0]hexan-6-yl)-1H-pyrazol-3-yl)-3-(difluoromethoxy)pyridin-2-amine] | 1.9 nM
Nc1ncc(-c2cc([C@H]3[C@@H]4C[C@@H](N5CCOCC5)C[C@@H]43)n(CC(F)F)n2)cc1OC(F)F [compound 160, 5-(1-(2,2-difluoroethyl)-5-((1R,3s,5S,6r)-3-morpholinobicyclo [3.1.0]hexan-6-yl)-1H-pyrazol-3-yl)-3-(difluoromethoxy) pyridin-2-amine] | 2.4 nM
COCCN1CC[C@@]12C[C@@H]1[C@H](C2)[C@H]1c1cc(-c2cnc(N)c(C(F)(F)F)c2)nn1C(C)C [compound 161, 5-(1-isopropyl-5-((1′R,2r,5′S,6′r)-1-(2-methoxyethyl)spiro [azetidine-2,3′-bicyclo[3,1.0]hexan]-6′-yl)-1H-pyrazol-3-yl)-3-(trifluoro-methyl)pyridin-2-amine] | 2.5 nM
CC(C)n1nc(-c2cnc(N)c(OC(F)F)c2)cc1[C@H]1[C@@H]2C[C@@]3(CCN3CC(F)F)C[C@@H]21 [compound 162, 5-(5-((1′R,2r,5′S,6′r)-1-(2,2-difluoro-ethyl)spiro[azetidine-2,3′-bicyclo[3.1.0]hexan]-6′-yl)-1-isopropyl-1H-pyrazol-3-yl)-3-(difluoro-methoxy)pyridin-2-amine] | 2.6 nM
CC(C)n1nc(-c2cnc(N)c(OC(F)(F)F)c2)cc1[C@H]1[C@@H]2C[C@@H](N3C[C@@H]4C[C@H]3CO4)C[C@@H]21 [compound 164, 5-(5-((1R,3s,5S,6S)-3-((1S,4S)-2-oxa-5-azabicyclo[2.2.1]heptan-5-yl)bicyclo[3.1.0]hexan-6-yl)-1-isopropyl-1H-pyrazol-3-yl)-3-(trifluoromethoxy)pyridin-2-amine] | 3.3 nM
Nc1ncc(-c2cc([C@H]3[C@@H]4C[C@@H](N5CCOCC5)C[C@@H]43)n(CC(F)F)n2)cc1OC(F)(F)F [compound 165, 5-(1-(2,2-difluoroethyl)-5-((1R,3s,5S,6r)-3-morpholinobicyclo [3.1.0]hexan-6-yl)-1H-pyrazol-3-yl)-3-(trifluoromethoxy) pyridin-2-amine] | 1.6 nM
